# Test results reported in patent US20140045807A2, “THE USE OF 3-METHOXY-PREGNENOLONE FOR THE PREPARATION OF A DRUG FOR TREATING A TRAUMATIC BRAIN INJURY” (priority 2004, published 2014).
# Tests used:
# MAP2 = MAP2 (Homo sapiens, UniProt P11137); experiment: Binding (affinity) by displacement of PREG-^3H
# Method: Binding (affinity) is measured by the displacement of PREG-^3H.
# PC12 cells = experiment: Retraction of neurites induced by nocodazole; type: cell-based, rat; conditions: pretreated one hour at 30 μM, nocodazole 15 minutes
# Source text: FIG. 5: Retraction of neurites (neurites) induced by nocodazole.
# Nocodazole is a microtubule depolymerizing agent. Its addition to PC12 cell cultures, differentiated in the presence of NGF, causes neurites to retract as a result of the depolymerization of their microtubules.
# [1] = system: human neuroblastoma HS-SY5Y cells; experiment: Cytotoxicity of okadaic acid, steroid protection (LDH release); type: cell-based; conditions: 24 hours, simultaneous addition, increasing concentrations
# Source text: FIG. 6: Toxicity of okadaic acid. Steroid protection. […] Cell death was indicated by the release of lactate dehydrogenase (LDH) in the culture medium.
# Okadaic acid is a protein phosphatase inhibiter. Thus, the hyperphosphorylation of tau protein is implicated in microtubule depolymerization and in human neuroblastoma HS-SY5Y cell death. The exposure of SY5Y cell cultures to okadaic acid does in fact cause significant cell death.
# [2] = target: T1, human progesterone receptor(PR) (Homo sapiens, UniProt P06401); experiment: Test of progesterone receptor agonist activity (luciferase transactivation, HEK293T); type: cell-based; conditions: increasing amounts, 24 hours
# T1 construct: expressed in transfected cells; host or cells: HEK293T
# T1 sequence (P06401 1-933): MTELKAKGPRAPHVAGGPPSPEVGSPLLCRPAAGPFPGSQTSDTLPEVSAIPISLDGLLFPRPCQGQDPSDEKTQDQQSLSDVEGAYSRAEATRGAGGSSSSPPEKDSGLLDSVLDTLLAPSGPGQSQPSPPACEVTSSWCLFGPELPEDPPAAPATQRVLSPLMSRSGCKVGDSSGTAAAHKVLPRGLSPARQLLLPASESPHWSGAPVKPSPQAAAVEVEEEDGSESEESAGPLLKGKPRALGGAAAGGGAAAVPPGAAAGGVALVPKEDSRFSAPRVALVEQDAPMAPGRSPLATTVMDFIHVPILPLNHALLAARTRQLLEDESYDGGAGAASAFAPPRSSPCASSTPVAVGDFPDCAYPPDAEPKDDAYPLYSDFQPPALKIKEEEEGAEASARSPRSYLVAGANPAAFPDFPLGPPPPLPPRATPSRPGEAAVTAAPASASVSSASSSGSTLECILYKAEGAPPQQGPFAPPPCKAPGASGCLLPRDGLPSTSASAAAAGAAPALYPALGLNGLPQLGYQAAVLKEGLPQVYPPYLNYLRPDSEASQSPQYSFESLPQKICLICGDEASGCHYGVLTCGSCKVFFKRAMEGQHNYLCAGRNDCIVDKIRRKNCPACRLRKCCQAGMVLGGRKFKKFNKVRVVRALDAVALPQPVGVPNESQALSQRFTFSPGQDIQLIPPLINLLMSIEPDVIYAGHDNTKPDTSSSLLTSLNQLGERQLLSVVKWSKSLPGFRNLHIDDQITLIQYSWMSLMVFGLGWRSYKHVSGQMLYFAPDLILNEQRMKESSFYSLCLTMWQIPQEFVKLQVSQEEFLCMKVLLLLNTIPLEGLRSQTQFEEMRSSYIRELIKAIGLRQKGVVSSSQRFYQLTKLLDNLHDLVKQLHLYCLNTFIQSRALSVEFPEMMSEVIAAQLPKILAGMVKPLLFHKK
# Method: (§1) The main experimental setting used is the following: HEK293T cells were transiently transfected, using calcium phosphate precipitation technology, with expression vectors pSG5hPR (which permits expression of human progesterone receptor(PR)), pFC31-luc (contains the luciferase gene under the control of the MMTV promoter, which is in turn activated by binding of a progestin to progesterone receptor) and pcbetagal (which permits expression of betagalactosidase), and cultured during 24 hours with increasing amounts of various compositions: • 1. […] Test of progesterone receptor […] activity: transfected cells were cultured with progesterone (1 nM) and increasing amounts of RU486 (a well-known progesterone receptor antagonist) or 3-methoxy-pregnenolone. • With this setting, a compound with progesterone receptor antagonist activity competes with progesterone for the occupation of progesterone receptor and results in a progressive loss of transactivation activity when the amount of this compound is increased compared to progesterone.
# [3] = target: T1, human progesterone receptor(PR); experiment: Test of progesterone receptor antagonist activity (luciferase transactivation, HEK293T); type: cell-based; conditions: with progesterone (1 nM), increasing amounts
# Method: as §1
# [4] = MAP4343 in the brain after TBI (LC-MS/MS); type: in vivo, rat; conditions: 20 mg/kg single injection 2 h after TBI; 4 h after injection; CHI, LFP, CCI models
# Method: FIG. 16: 3-methoxy-PREG (MAP4343) concentrations in the brain 4 h after a single injection of MAP4343 (20 mg/kg, injected 2 h after TBI or sham-surgery).
# MAP4343 was dissolved in sesame oil and injected subcutaneously. Two distinct doses of MAP4343 (10 and 20 mg/kg) were tested in each model. The injection took place 2 h after trauma.
# In order to establish whether TBI modifies the passage of MAP4343 into the brain, MAP4343 was measured by liquid chromatography associated to tandem mass spectrometry (LC-MS/MS) in the brain of animals sacrificed 6 h after CHI, LFP or CCI (4 h after MAP4343 single injection).
# In order to establish whether TBI modifies the passage of 3-methoxy-PREG (MAP4343) into the brain, MAP4343 was measured by liquid chromatography coupled to tandem mass spectrometry LC-MS/MS in the brain of animals sacrificed 6 h after CHI, LFP or CCI (4 h after MAP4343 injection).
# Chain of MAP2 (P11137 whole entry): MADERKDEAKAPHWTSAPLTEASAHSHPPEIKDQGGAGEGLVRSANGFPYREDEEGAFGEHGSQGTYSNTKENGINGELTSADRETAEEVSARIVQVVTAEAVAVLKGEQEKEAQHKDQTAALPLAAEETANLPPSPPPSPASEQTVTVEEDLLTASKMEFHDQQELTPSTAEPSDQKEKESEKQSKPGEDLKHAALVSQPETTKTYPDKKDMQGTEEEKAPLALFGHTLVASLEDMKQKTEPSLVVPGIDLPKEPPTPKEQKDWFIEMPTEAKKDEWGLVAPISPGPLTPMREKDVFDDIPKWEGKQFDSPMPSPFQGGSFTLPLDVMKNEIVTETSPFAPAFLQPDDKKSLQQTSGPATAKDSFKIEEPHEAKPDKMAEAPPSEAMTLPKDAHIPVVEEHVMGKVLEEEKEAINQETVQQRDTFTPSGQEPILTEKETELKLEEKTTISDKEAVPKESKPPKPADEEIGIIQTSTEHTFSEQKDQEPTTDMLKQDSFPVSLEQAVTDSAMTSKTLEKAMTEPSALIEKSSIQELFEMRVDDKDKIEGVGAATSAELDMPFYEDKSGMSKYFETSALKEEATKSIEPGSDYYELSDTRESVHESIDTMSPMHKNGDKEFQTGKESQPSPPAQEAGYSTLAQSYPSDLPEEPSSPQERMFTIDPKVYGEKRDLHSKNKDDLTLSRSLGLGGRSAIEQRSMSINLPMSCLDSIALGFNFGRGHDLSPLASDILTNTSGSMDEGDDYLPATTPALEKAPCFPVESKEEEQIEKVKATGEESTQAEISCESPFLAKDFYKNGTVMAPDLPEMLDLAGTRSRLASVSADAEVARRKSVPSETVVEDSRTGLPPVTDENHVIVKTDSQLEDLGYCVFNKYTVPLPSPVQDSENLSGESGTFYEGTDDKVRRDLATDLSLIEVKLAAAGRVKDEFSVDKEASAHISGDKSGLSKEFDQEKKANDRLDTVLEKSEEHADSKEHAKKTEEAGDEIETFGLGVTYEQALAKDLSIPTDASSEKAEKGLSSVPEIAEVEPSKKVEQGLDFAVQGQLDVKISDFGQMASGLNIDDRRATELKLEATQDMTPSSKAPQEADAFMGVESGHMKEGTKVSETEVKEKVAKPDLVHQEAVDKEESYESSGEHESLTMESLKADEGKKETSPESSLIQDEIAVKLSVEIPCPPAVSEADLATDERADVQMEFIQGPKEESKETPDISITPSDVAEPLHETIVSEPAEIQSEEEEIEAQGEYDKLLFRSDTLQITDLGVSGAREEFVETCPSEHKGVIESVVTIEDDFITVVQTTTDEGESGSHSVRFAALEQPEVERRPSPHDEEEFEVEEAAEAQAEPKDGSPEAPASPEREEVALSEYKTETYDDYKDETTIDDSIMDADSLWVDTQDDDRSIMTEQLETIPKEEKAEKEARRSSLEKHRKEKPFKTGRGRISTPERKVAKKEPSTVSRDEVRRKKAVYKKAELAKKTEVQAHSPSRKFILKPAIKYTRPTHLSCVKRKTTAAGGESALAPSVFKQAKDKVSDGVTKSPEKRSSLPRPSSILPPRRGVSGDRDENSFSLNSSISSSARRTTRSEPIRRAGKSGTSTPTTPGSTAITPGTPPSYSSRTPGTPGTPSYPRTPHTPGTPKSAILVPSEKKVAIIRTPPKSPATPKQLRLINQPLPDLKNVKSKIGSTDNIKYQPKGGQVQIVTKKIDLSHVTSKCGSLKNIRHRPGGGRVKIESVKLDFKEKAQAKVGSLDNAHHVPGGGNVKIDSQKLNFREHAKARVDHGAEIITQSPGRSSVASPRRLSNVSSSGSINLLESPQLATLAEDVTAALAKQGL
compound,measurement,setting,value
"CO[C@H]1CC[C@@]2(C)C(=CC[C@H]3[C@@H]4CC[C@H](C(C)=O)[C@@]4(C)CC[C@@H]32)C1 [3-methoxy-PREG, 3β-methoxy-pregna-5-ene-20-one]",Affinity (index of binding),MAP2,100% of PREG
same,resistance of neurites to nocodazole,PC12 cells,makes the neurites resistant to nocodazole
same,cell death caused by okadaic acid (LDH release),[1],"the same effect, only much stronger"
same,progesterone receptor agonist (transactivation) activity,[2],does not have progesterone receptor agonist activity
same,progesterone receptor antagonist activity,[3],weak progesterone receptor antagonist
same,MAP4343 concentrations in the brain,[4],concentrations of MAP4343 of significant therapeutic interest reach the brain
